Where a name gives a salt, the structure may show the parent alone. Read-outs that look alike come from different tables or passages of the source. Ends that are not written are not given here.
Tests used:
GHS1A-receptor = molecular target: T1, GHS1A-receptor (Homo sapiens, UniProt Q92847); test: Ghrelin-agonism in HEK293 cells (intracellular calcium, FLIPR); format: cell-based; details: HEK293 cells permanently transfected with GHS1A-receptor, calcium fluorescence (fluo-4 or Kit-3), EC50 in M, read-out: pEC50 (converted)
T1 construct: expressed in transfected cells; host or cells: HEK293
T1 sequence (Q92847 whole entry): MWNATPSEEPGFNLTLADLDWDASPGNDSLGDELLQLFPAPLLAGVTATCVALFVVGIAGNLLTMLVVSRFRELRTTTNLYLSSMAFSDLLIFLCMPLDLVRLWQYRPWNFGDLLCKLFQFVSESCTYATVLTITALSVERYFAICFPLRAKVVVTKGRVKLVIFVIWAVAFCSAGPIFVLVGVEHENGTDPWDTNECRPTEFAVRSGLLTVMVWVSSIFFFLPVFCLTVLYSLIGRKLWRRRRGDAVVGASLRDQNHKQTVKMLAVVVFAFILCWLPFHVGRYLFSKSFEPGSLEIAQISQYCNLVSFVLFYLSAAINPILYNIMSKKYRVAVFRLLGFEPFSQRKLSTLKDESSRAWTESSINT
Protocol: One day before the experiment, HEK293 cells, permanently transfected with the gene sequence for expression of the GHS1A-receptor, were seeded in poly-D-Lysine coated 96-well plates with clear bottom, and allowed to grow to […] of confluence on the next day.
Then, cells were incubated with the calcium-sensitive intracellular fluorescent probe fluo-4 or Kit-3 for 1 h at 37° C. Fluorescence representing free intracellular calcium in the cells was measured in a FLIPR-system (excitation at 488 nm, emission>520 nm). Test compounds were added to each well at the desired concentration and the fluorescence signal was simultaneously recorded in all wells. Release of intracellular calcium triggered by activation of the receptors upon addition of the test compound was measured as the fluorescence emitted from the complex of calcium and the fluorescent probe. The drug effect on fluorescence intensity was expressed relative to the maximal fluorescence intensity measured in cells exposed to the calcium-ionophore ionomycin.

NMRI-mice = test: Acceleration of gastric emptying and small intestinal propulsion in NMRI-mice; format: in vivo; details: Mus musculus, sc, lowest active dose, subcutaneous, 30 min before phenol red test meal
Protocol: (§1) Male NMRI-mice weighing around 25 gram were fasted for 20 h and had free access to drinking water. Test compounds were administered to the animals by subcutaneous route 30 min before they were given a test meal by oral gavage. The test meal consisted of 0.3 ml of a chocolate nutridrink solution (1.0 kcal/ml) containing phenol red marker (5 mg/ml). Fifteen min after administration of the meal, the mice were sacrificed by CO2 gas inhalation. The phenol red content remaining in the stomach (extracted from the stomach with NaOH) was determined at 557 nm in a spectrophotometer and expressed as extinction units. Small intestinal propulsion was determined as the distance traveled by the phenol red marker through the intestine and expressed as a percentage of total small intestinal length (from the pylorus to the ileo-cecal junction).
The lowest dose that was active for each parameter was noted as the lowest active dose (LAD). Table 12 discloses LAD values.

GHS1A-r+/+ (WT) mice = test: Acceleration of gastric emptying in wild type (GHS1A-r+/+, WT) mice; format: in vivo; details: 10 mg/kg subcutaneous 30 minutes before test meal, 15 minutes after meal
Protocol: (§2) FIG. 1 describes the gastric content (measured as extinction units of phenol red) remaining 15 minutes after administration of a phenol red containing test meal by oral gavage in GHS1A-r^+/+ (WT) and GHS1A-r^−/− (KO) mice pretreated with saline (Vehicle) or compound 3 (10 mg/kg SC) 30 minutes before the meal (individual data and mean, n=3).
as §1, with “junction). […]” for “junction).”

GHS1A-r-/- (KO) mice = test: Acceleration of gastric emptying in GHS1A-r-/- (KO) mice; format: in vivo; details: 10 mg/kg subcutaneous 30 minutes before test meal, 15 minutes after meal
Protocol: as §2
as §1, with “junction). […]” for “junction).”

mice = test: In house study: gastric emptying of a test meal after intravenous ghrelin in mice; format: in vivo; details: intravenous administration to mice; 95% confidence interval 0.058-0.174
Description: (§3) These observations confirm that the gastrointestinal pro-kinetic properties of ghrelin-ligands are mediated by direct interaction with GHS1A-r. Small molecules showing affinity for the GHS1A-r and activating it are therefore anticipated to stimulate gastrointestinal motility in general, and gastric emptying in particular.

[1] = tested on: transgenic mice with a deletion of GHS1A-r; test: In house study: gastric emptying after ghrelin in transgenic mice with a deletion of GHS1A-r; format: in vivo; details: administered up to 2.5 mg/kg
Description: as §3

[2] = active when >60% of animals had phenol red front beyond 85% of small intestinal length, read-out: LAD (mg/kg) Small intestinal propulsion
[3] = stomach content 15 min after meal, active when >60% of animals below 0.9 extinction units, read-out: LAD (mg/kg) Gastric emptying

Compound | melting point | EC50 (GHS1A-receptor) | other results
CCN(CC)CCCC1(O)c2ccccc2CCCC1c1cccc(Cl)c1 (racemic) (as salt: oxalate) [Compound 41] | 160.3 °C | – | –
OC1(CCCN2CCCC2)c2ccccc2CCCC1c1ccc(Cl)cc1 (racemic) (as salt: oxalate) [Compound 48] | 236.2 °C | – | –
OC1(CCCN2CCCCC2)c2ccccc2CCCC1c1ccc(Cl)cc1 (racemic) (as salt: oxalate) [Compound 50] | 201.1 °C | – | –
CCN(CC)CCCC1(O)c2ccccc2CCCC1c1ccc(F)cc1F (racemic) (as salt: oxalate) [Compound 57] | 160.3 °C | – | –
COCCN(C)CCCC1(O)c2ccccc2CCCC1c1ccc(F)cc1F (racemic) (as salt: oxalate) [Compound 58] | 140 °C | – | –
OC1(CCCN2CCCCC2)c2ccccc2CCCC1c1ccc(F)cc1F (racemic) (as salt: oxalate) [Compound 59] | 211.5 °C | – | –
CNCCCC1(O)c2ccccc2CCCC1c1ccc(OC)cc1 (racemic) (as salt: oxalate) [Compound 65] | 134.3 °C | – | –
COc1ccc(C2CCCc3ccccc3C2(O)CCCN(C)C)cc1 (racemic) (as salt: oxalate) [Compound 66] | 100 °C | – | –
CCN(CC)CCCC1(O)c2ccccc2CCCC1c1ccc(OC)cc1 (racemic) (as salt: oxalate) [Compound 67] | 153 °C | – | –
COCCN(C)CCCC1(O)c2ccccc2CCCC1c1ccc(OC)cc1 (racemic) (as salt: oxalate) [Compound 70] | 132.2 °C | – | –
Cc1ccc(C2CCCc3ccccc3C2(O)CCCN2CCCC2)cc1 (racemic) [Compound 28] | 139.8 °C | 158 nM | minimal effective dose (NMRI-mice; [2]): > 10 mg/kg; minimal effective dose (NMRI-mice; [3]): > 10 mg/kg
CC(=O)N1CCN(CCCC2(O)c3ccccc3CCCC2c2ccc(C)cc2)CC1 (racemic) [Compound 34] | 216.2 °C | 3160 nM | –
CCN(CC)CCCC1(O)c2ccccc2CCCC1c1ccc(O)cc1 (racemic) [Compound 36] | 141.4 °C | 6310 nM | –
COc1cccc(C2CCCc3ccccc3C2(O)CCCN2CCN(C(C)=O)CC2)c1 (racemic) [Compound 63] | 153 °C | > 10000 nM | –
COc1ccc(C2CCCc3ccccc3C2(O)CCCN2CCN(C(C)=O)CC2)cc1 (racemic) [Compound 71] | 165.1 °C | > 10000 nM | –
CN(C)CCCC1(O)c2ccccc2CCCC1c1cncnc1 (racemic) [Compound 84] | 134.3 °C | 7940 nM | –
CN(C)CCCC1(O)c2ccccc2CCCC1c1cnc2ccccc2c1 (racemic) [Compound 85] | 150.3 °C | 100 nM | minimal effective dose (NMRI-mice; [2]): > 10 mg/kg; minimal effective dose (NMRI-mice; [3]): > 10 mg/kg
CC(C)NCCCC1(O)c2ccccc2CCCC1c1cnc2ccccc2c1 (racemic) [Compound 86] | 115.2 °C | 631 nM | –
CN(C)CCC[C@@]1(O)c2ccccc2OCC[C@@H]1c1ccccc1 (relative stereo) (as salt: oxalate) [Compound 8] | 136 °C | – | –
Oc1ccc([C@H]2CCCc3ccccc3[C@]2(O)CCCN2CCOCC2)cc1 (relative stereo) [Compound 7] | 177.1 °C | – | –
CN(C)CCCC1(O)c2ccccc2CCCC1c1ccc(Cl)cc1 (single isomer, unassigned) (as salt: oxalate) [Compound 3] | 168.7 °C | – | –
CN(C)CCCC1(O)c2ccccc2CCCC1c1ccccc1 (single isomer, unassigned) (as salt: oxalate) [Compound 104] | 210 °C | – | –
CN(C)CCCC1(O)c2ccccc2CCCC1c1ccccc1 (single isomer, unassigned) (as salt: oxalate) [Compound 105] | 178 °C | – | –
CN(C)CCCC1(O)c2ccccc2CCCC1c1ccc(Cl)cc1 (single isomer, unassigned) [Compound 3] | – | 20 nM | meal content remaining in the stomach versus vehicle (GHS1A-r+/+ (WT) mice): emptied more than vehicle treated WT mice; meal content remaining in the stomach versus vehicle (GHS1A-r-/- (KO) mice): no difference in remaining gastric content; minimal effective dose (NMRI-mice; [2]): 0.63 mg/kg; minimal effective dose (NMRI-mice; [3]): 0.63 mg/kg
ghrelin (GSSFLSPEHQRVQQRKESKKPPAKLQPR; ends and bridges not checked; UniProt Q9UBU3 24-51, looked up) ["an endogenous peptide hormone ... the natural ligand for the type 1 growth hormone secretagogue receptor (GHS1A-r)"] | – | – | ED50 stimulation of gastric emptying of a test meal (mice): 0.100 mg/kg; effect on gastric emptying [1]: no effect

From patent US9040725B2, “Benzocycloheptane and benzoxepine derivatives” (Janssen Pharmaceutica NV, priority 2008, dated 2015)
